We go through 18 molecules from patent US6630500B2, “Selected fused pyrrolocarbazoles” (Cephalon, Inc., priority 2000, dated 2003).

Each structure is given as a SMILES string.

What all share (type): biochemical
The target of assay [1] is T1, VEGF receptor (human flk-1, KDR, VEGFR2) kinase domain (Homo sapiens, UniProt P35968).
T1 construct: VEGF receptor (human flk-1, KDR, VEGFR2) kinase domain; made in house
In words: Inhibition of VEGF receptor kinase activity (ELISA). The note with it: 40 μM ATP; for inhibition at 0.3 µM: 300 nM compound, read-out: VEGFR2 % inh. @ 300 nM; for IC50: values without % sign. On the procedure:
Fused pyrrolocarbazole compounds were examined for their inhibitory effects on the kinase activity of baculovirus-expressed VEGF receptor (human flk-1, KDR, VEGFR2) kinase domain using the procedure described for the trkA kinase ELISA assay described below. The kinase reaction mixture, consisting of 50 mM Hepes, pH 7.4, 40 μM ATP, 10 mM MnCl2, 0.1% BSA, 2% DMSO, and various concentrations of inhibitor, was transferred to PLC-γ/GST-coated plates. VEGFR kinase was added and the reaction was allowed to proceed for 15 min. at 37° C. Detection of phosphorylated product was accomplished by addition of anti-phosphotyrosine antibody (UBI). A secondary enzyme-conjugated antibody was delivered to capture the antibody-phosphorylated PLC-γ/GST complex. The activity of the bound enzyme was measured via an amplified detection system (Gibco-BRL). Inhibition data were analyzed using the sigmoidal dose-response (variable slope) equation in GraphPad Prism.
Selected isomeric fused pyrrolocarbazole and isoindolone compounds can be tested for their ability to inhibit the kinase activity of baculovirus-expressed human trkA cytoplasmic domain using an ELISA-based assay as previously described (Angeles et al., Anal. Biochem. 236: 49-55, 1996). Briefly, the 96-well microtiter plate is coated with substrate solution (recombinant human phospholipase C-γl/glutathione S-transferase fusion protein (Rotin et al., EMBO J., 11: 559-567, 1992). Inhibition studies are performed in 100 μl assay mixtures containing 50 mM Hepes, pH 7.4, 40 μM ATP, 10 mM MnCl2, 0.1% BSA, 2% DMSO, and various concentrations of inhibitor. The reaction is initiated by addition of trkA kinase and allowed to proceed for 15 minutes at 37° C. An antibody to phosphotyrosine (UBI) is then added, followed by a secondary enzyme-conjugated antibody, alkaline phosphatase-labelled goat anti-mouse IgG (Bio-Rad). The activity of the bound enzyme is measured via an amplified detection system (Gibco-BRL). Inhibition data are analyzed using the sigmoidal dose-response (variable slope) equation in GraphPad Prism.

In the next assay the target is T2, MLK1 (Homo sapiens, UniProt P80192).
T2 construct: 1 μg/ml of baculoviral GST-MLK1KD; GST (N); made in house
T2 sequence (P80192 144-412 limits assumed, species assumed): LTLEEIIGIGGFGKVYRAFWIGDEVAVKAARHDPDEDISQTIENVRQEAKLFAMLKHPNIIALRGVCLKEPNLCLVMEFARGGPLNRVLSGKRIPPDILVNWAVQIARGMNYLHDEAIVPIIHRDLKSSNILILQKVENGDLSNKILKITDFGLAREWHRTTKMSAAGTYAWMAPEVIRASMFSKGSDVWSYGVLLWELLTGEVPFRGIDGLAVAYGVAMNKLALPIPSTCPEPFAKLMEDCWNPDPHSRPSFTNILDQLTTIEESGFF
In words: Inhibition of Mixed Lineage Kinase-1 (MLK1) activity. As to conditions: 60 μM ATP; for IC50: values without % sign; for inhibition at 0.1 µM: 100 nM compound. On the procedure:
The kinase activity of MLK1 was assessed using the Millipore Multiscreen TCA “in-plate” format as described for protein kinase C (Pitt & Lee, J. Biomol. Screening, 1: 47-51, 1996). Briefly, each 50-μl assay mixture contained 20 mM Hepes, pH 7.2, 5 mM EGTA, 15 mM MgCl2, 25 mM β-glycerophosphate, 60 μM ATP, 0.25 μCi [γ-^32P]ATP, 0.1% BSA, 500 μ/ml myelin basic protein (UBI #13-104), 2% DMSO, […], and 1 μg/ml of baculoviral GST-MLK1KD. Samples were incubated for 15 min at 37° C. The reaction was stopped by adding ice cold 50% TCA and the proteins were allowed to precipitate for 30 min at 4° C. The plates were then washed with ice cold 25% TCA. Supermix scintillation cocktail was added, and the plates were allowed to equilibrate for 1-2 hours prior to counting using the Wallac MicroBeta 1450 PLUS scintillation counter.

For the next assay, the target named is T3, MLK3 (Homo sapiens, UniProt Q16584).
T3 construct: 2 μg/ml of baculoviral GST-MLK3KD; GST (N); made in house
T3 sequence (Q16584 117-379 limits assumed, species assumed): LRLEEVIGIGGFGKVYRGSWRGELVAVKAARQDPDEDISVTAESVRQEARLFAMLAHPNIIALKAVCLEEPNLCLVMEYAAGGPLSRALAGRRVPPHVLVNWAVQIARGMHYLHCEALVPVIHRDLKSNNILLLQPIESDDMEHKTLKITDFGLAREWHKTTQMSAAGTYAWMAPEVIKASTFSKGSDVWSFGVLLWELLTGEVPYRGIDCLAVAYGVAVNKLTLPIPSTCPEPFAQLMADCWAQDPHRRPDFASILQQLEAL
In words: Inhibition of Mixed Lineage Kinase-3 (MLK3) activity. The note with it: 100 μM ATP; for inhibition at 0.1 µM: 100 nM compound; for IC50: values without % sign. On the procedure: The kinase activity of MLK1 was assessed using the Millipore Multiscreen TCA “in-plate” format as described for protein kinase C (Pitt & Lee, J. Biomol. Screening, 1: 47-51, 1996). Briefly, each 50-μl assay mixture contained 20 mM Hepes, pH 7.2, 5 mM EGTA, 15 mM MgCl2, 25 mM β-glycerophosphate, 60 μM ATP, 0.25 μCi [γ-^32P]ATP, 0.1% BSA, 500 μ/ml myelin basic protein (UBI #13-104), 2% DMSO, 1 μM of test compound, and 1 μg/ml of baculoviral GST-MLK1KD. Samples were incubated for 15 min at 37° C. The reaction was stopped by adding ice cold 50% TCA and the proteins were allowed to precipitate for 30 min at 4° C. The plates were then washed with ice cold 25% TCA. Supermix scintillation cocktail was added, and the plates were allowed to equilibrate for 1-2 hours prior to counting using the Wallac MicroBeta 1450 PLUS scintillation counter.
Assays were performed using the Millipore Multiscreen plate format as described for MLK1. Briefly, each 50-μl assay mixture contained 20 mM Hepes, pH 7.2, 5 mM EGTA, 15 mM MgCl2, 25 mM β-glycerophosphate, 100 μM ATP, 0.25 μCi [γ-^32P]ATP, 0.1% BSA, 500 μg/ml myelin basic protein (UBI #13-104), 2% DMSO, various concentrations of test compound, and 2 μg/ml of baculoviral GST-MLK3KD. Sample were incubated for 15 min at 37° C. The reaction was stopped by adding ice cold 50% TCA and the proteins were allowed to precipitate for 30 min at 4° C. The plates were then washed with ice cold 25% TCA. Supermix scintillation cocktail was added, and the plates were allowed to equilibrate for 1-2 hours prior to counting.

T1 sequence (P35968 834-1162 limits assumed): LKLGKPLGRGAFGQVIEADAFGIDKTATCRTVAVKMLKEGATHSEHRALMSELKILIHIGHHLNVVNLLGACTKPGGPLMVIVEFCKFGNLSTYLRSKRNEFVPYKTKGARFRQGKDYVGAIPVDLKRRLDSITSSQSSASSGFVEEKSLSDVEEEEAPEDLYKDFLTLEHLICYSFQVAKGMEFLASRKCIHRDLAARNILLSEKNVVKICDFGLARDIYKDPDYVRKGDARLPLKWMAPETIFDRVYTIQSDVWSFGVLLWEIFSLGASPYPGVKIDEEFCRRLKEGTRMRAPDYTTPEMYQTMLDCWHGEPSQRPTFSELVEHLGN

In the case of `COC(C)c1ccc2[nH]c3c4c(c5c(c3c2c1)CNC5=O)-c1ccccc1C4` (racemic) [Compound 36], the inhibition at 0.3 µM in assay [1] was 12%. At MLK1, this molecule had an IC50 of 26 nM. For the same molecule, at MLK3, the inhibition at 0.1 µM amounted to 41%.

Turning to `CCOC(C)c1ccc2c(c1)c1c3c(c4c(c1n2CCCO)Cc1ccccc1-4)C(=O)NC3` (single isomer, unassigned) [Compound 11], the IC50 in assay [1] came out at 65 nM; at MLK1, 78 nM; against MLK3, 20 nM.

Consider `CCOCc1ccc2[nH]c3c4c(c5c(c3c2c1)CNC5=O)-c1ccccc1C4C(C)O` (single isomer, unassigned) [Compound 14], for which the figures for the IC50 (in assay [1]; against MLK3) were 72 nM and 9 nM, respectively. In addition, on MLK1, the inhibition at 0.1 µM worked out at 93%.

On to `CCOCc1ccc2c(c1)c1c3c(c4c(c1n2CCCO)Cc1ccccc1-4)C(=O)NC3` [Compound 1], for which the values for the IC50 (in assay [1]; on MLK1; against MLK3) were 4 nM, 21 nM and 4 nM, respectively.

Regarding `COCc1ccc2c(c1)c1c3c(c4c(c1n2CCCO)Cc1ccccc1-4)C(=O)NC3` [Compound 2], the IC50 in assay [1] turned out to be 17 nM; against MLK1, 15 nM; against MLK3 it was 8 nM.

Take `CC(C)OCc1ccc2c(c1)c1c3c(c4c(c1n2CCCO)Cc1ccccc1-4)C(=O)NC3` [Compound 3]: the IC50 in assay [1] is 7 nM; against MLK1 it was 17 nM; on MLK3, 9 nM.

With `CCC(C)OCc1ccc2c(c1)c1c3c(c4c(c1n2CCCO)Cc1ccccc1-4)C(=O)NC3` (stereo not shown) [Compound 4], the IC50 in assay [1] was 12 nM; at MLK1, 15 nM; against MLK3 it was 4 nM.

In the case of `CCOCc1ccc2c(c1)c1c3c(c4c(c1n2CC(C)O)Cc1ccccc1-4)C(=O)NC3` (stereo not shown) [Compound 7], the IC50 in assay [1] worked out at 25 nM; on MLK3, 30 nM. Moreover, the inhibition at 0.1 µM on MLK1 stood at 85%.

On to `CCCCOCc1ccc2c(c1)c1c3c(c4c(c1n2CCCO)Cc1ccccc1-4)C(=O)NC3` [Compound 9], for which the IC50 in assay [1] was found to be 18 nM; against MLK1 it was 26 nM; at MLK3 it was 15 nM.

As to `CCOC(C)c1ccc2c(c1)c1c3c(c4c(c1n2CCCO)Cc1ccccc1-4)C(=O)NC3` (stereo not shown) [Compound 10], the IC50 in assay [1] came to 83 nM; against MLK1, 37 nM; against MLK3, 15 nM.

On to `CCCCOC(C)c1ccc2c(c1)c1c3c(c4c(c1n2CCCO)Cc1ccccc1-4)C(=O)NC3` (stereo not shown) [Compound 15], for which the figures for the IC50 (in assay [1]; on MLK1; at MLK3) were 130 nM, 41 nM and 27 nM, respectively.

Take `CC(C)OC(C)c1ccc2c(c1)c1c3c(c4c(c1n2CCCO)Cc1ccccc1-4)C(=O)NC3` (stereo not shown) [Compound 16]: in assay [1], the IC50 amounted to 411 nM. Moreover, the inhibition at 0.1 µM is 66% on MLK1 and 49% against MLK3.

As to `CC(C)OCc1ccc2c(c1)c1c3c(c4c(c1n2CCCOC(=O)CN)Cc1ccccc1-4)C(=O)NC3` [Compound 18], the IC50 amounted to 23 nM in assay [1], 47 nM at MLK1 and 23 nM against MLK3.

With `CC(C)OCc1ccc2c(c1)c1c3c(c4c(c1n2CCCOC(=O)CCCN(C)C)Cc1ccccc1-4)C(=O)NC3` [Compound 21], the inhibition at 0.3 µM in assay [1] worked out at 48%. This molecule also returned an inhibition at 0.1 µM against MLK1 of 40%.

Consider `CC(C)OCc1ccc2c(c1)c1c3c(c4c(c1n2CCCOC(=O)CCCCCN)Cc1ccccc1-4)C(=O)NC3` [Compound 23], for which, in assay [1], the inhibition at 0.3 µM was 57%. Moreover, the inhibition at 0.1 µM on MLK1 was determined as 31%.

Regarding `CC(C)SCc1ccc2c(c1)c1c3c(c4c(c1n2CCCO)Cc1ccccc1-4)C(=O)NC3` [Compound 27], the IC50 in assay [1] stood at 57 nM; on MLK1, 22 nM.

On to `O=C1NCc2c1c1c(c3[nH]c4ccc(CO)cc4c23)Cc2ccccc2-1` [Compound 30], for which the results for the half-maximal inhibitory concentration (IC50) (in assay [1]; against MLK1) were 302 nM and 30 nM, respectively.

`CCCSCc1ccc2c(c1)c1c3c(c4c(c1n2CCCOC(=O)C(F)(F)F)Cc1ccccc1-4)C(=O)NC3` [Compound 37]: in assay [1], the inhibition at 0.3 µM came out at 37%. The molecule also displayed an IC50 against MLK1 of 17 nM.
